Laboratory results published in patent US12239662B2, “Compositions for inhibiting anaerobic microorganisms” (LPOXY THERAPEUTICS, INC, priority 2020, dated 2025).
Like-named read-outs stand apart in the source and are kept apart here.

How the values were obtained:
[1] = test system: Clostridioides difficile ATCC 43255; conditions: for onset of action: compared between treatment groups; for cure rate: no recurrence over 14 days after inoculation; for survival: treatment study day 0 to day 4, followed 14 days after inoculation, 10 mice per group; for clinical severity and recovery: total clinical score and daily weights, compared to infection control group
Text: Thirty C57BL/6 female mice (18-22 g) fitted with duodenal catheters externalized and fitted with access button ports were purchased from Charles River Laboratories and singly housed in a temperature and humidity-controlled room with a 12-hour light cycle. The mice were divided into 3 groups of 10. All procedures used in these experimental protocols were in compliance with the Animal Welfare Act, the Guide for the Care and Use of Laboratory Animals, and the Office of Laboratory Animal Welfare.
The mice were pretreated with an antibiotic cocktail in their drinking water for 8 consecutive days. This antibiotic cocktail was composed of 1% glucose, 500 mcg/mL kanamycin, 44 mcg/mL gentamicin, 1062.5 units per milliliter colistin, 269 mcg/mL metronidazole, 156 mcg/mL ciprofloxacin, 100 mcg/mL ampicillin, and 56 mcg/mL vancomycin. The antibiotic cocktail and drinking water was replaced every 2 to 3 days. Five days prior to infection the antibiotic water was removed and normal drinking water was provided to the animals. Three days prior to infection the animals received a single dose of clindamycin 10 mg per kilogram via oral administration in a volume of 10 mL per kilogram.
On study Day 0 mice were inoculated with the bacterial suspension of 5×10^5 CFU Clostridioides difficile ATCC 43255 via oral gavage. Eight hours after inoculation administration of vehicle, antibiotic control, and test article was initiated according to the following. The vehicle a.k.a. infection control group of 10 mice received 80 μL per hour 100% pure nitrogen gas via duodenal catheter. The infection control group of 10 mice received 50 mg/kg vancomycin via oral gavage once daily. […] Administration was continued from study day 0 to study day 4, a total of 5 days. The mice were followed for 14 days after inoculum recording daily weights and clinical observations. Animals that appeared severely moribund were euthanized. At the end of the study all animals were humanely euthanized.

[2] = up to the maximum bolus tested, 200 microliters every 6 hours (8 mL/kg per bolus; 32 mL/kg/day)
Procedure: In a separate experiment using the above conditions the tolerance of bolus injection of 100% oxygen gas was tested.

CN[C@H](CC(C)C)C(=O)N[C@H]1C(=O)N[C@@H](CC(N)=O)C(=O)N[C@H]2C(=O)N[C@H]3C(=O)N[C@H](C(=O)N[C@H](C(=O)O)c4cc(O)cc(O)c4-c4cc3ccc4O)[C@H](O)c3ccc(c(Cl)c3)Oc3cc2cc(c3O[C@@H]2O[C@H](CO)[C@@H](O)[C@H](O)[C@H]2O[C@H]2C[C@](C)(N)[C@H](O)[C@H](C)O2)Oc2ccc(cc2Cl)[C@H]1O [vancomycin, reference compound]
onset of action ([1]; mouse CDI model): more rapid onset of action
cure rate ([1]; mouse CDI model): 30%
survival ([1]; mouse CDI model): 100%

O=O [EAT, oxygen]
adverse effects of bolus injection [2]: No adverse effects
adverse effects due to gas infusion ([1]; efficacy experiments, infusion 3.2 mL/kg/hr, 76.8 mL/kg/day via duodenal catheter): no adverse effects
onset of action ([1]; mouse CDI model): slower onset of action
animals showing signs of infection in the 2nd week after inoculation and treatment (recurrence) ([1]; mouse CDI model, days 8-14, after treatment was complete): no recurrent infections
cure rate ([1]; mouse CDI model): 100%
clinical severity and recovery ([1]; mouse CDI model): mildly ill compared to the infection control group, recover rapidly
clinical severity and recovery ([1]; mouse CDI model, listed as Enteric aerobization therapy): reduces the severity of disease, accelerates recovery
survival ([1]; mouse CDI model): 100%
